Reference: patent US8722616B2, “Anti-HIV peptides and methods of use thereof” (priority 2009, dated 2014)
Non-standard residues stand in square brackets, D forms with d. Residues, ends and D or L forms follow the SMILES beside them. No end group written: not given here. Phg = N[C@H](C(=O)O)c1ccccc1

Experiments:
[1] = Cytotoxicity in the CPE assay (XTT, 50% reduction in cell viability); conditions: human
Method: (§1) Anti-HIV cytopathic effect inhibition assays were conducted as described (Buckheit et al. (1995) Antimicrob. Agents Chemother., 39:2718-2727). In brief, serially diluted peptides were added to a 96-well round bottom microtiter plate in triplicate. CEM-SS cells at a concentration of 2.5×10^3 cells per well and HIV-1IIIB at the appropriate pre-determined titer were sequentially added to the microtiter plate. The cultures were incubated at 5% CO2/37° C. for six days. Following the incubation, the microtiter plates were stained with XTT tetrazolium dye to evaluate the efficacy and toxicity of the test compound(s).
as §1, with “Cytopathic Effect (CPE) Inhibition Assay: The CPE assay was performed” for “Anti-HIV cytopathic effect inhibition assays were conducted”, “as previously” for “as”, “Briefly,” for “In brief,”, “compound was” for “peptides were”

HIV-1IIIB = test: microbe, parasite or virus in culture
Method: as §1
as §1, with “Cytopathic Effect (CPE) Inhibition Assay: The CPE assay was performed” for “Anti-HIV cytopathic effect inhibition assays were conducted”, “as previously” for “as”, “Briefly,” for “In brief,”, “compound was” for “peptides were”

CEM-SS cells = test: Cytotoxicity in the CPE assay (XTT, 50% reduction in cell viability)
Method: as §1
as §1, with “Cytopathic Effect (CPE) Inhibition Assay: The CPE assay was performed” for “Anti-HIV cytopathic effect inhibition assays were conducted”, “as previously” for “as”, “Briefly,” for “In brief,”, “compound was” for “peptides were”

[2] = Table 4, LL-37-derived peptides, CEM-SS cells
[3] = Table 1, CEM-SS cells, HIV-1IIIB, six days, 50% inhibition of virus replication
[4] = read-out: TC50, Table 1, CEM-SS cells, six days, 50% reduction in cell viability
[5] = read-out: TC50, Table 2, CEM-S cells
[6] = Table 2, sequence shuffling, CEM-S cells
[7] = read-out: TC50, Table 3, CEM-SS cells

CC[C@H](C)[C@H](NC(=O)[C@H](CCCCN)NC(=O)[C@H](CCCCN)NC(=O)[C@H](Cc1ccccc1)NC(=O)[C@H](CC(C)C)NC(=O)[C@H](CCCCN)NC(=O)[C@H](CCCCN)NC(=O)[C@@H](NC(=O)[C@H](CCCCN)NC(=O)[C@H](CCCCN)NC(=O)[C@H](CCCNC(=N)N)NC(=O)[C@@H](NC(=O)[C@H](CCCNC(=N)N)NC(=O)[C@H](CCCCN)NC(=O)[C@H](Cc1ccccc1)NC(=O)[C@H](CCCNC(=N)N)NC(=O)CN)c1ccccc1)c1ccccc1)C(=O)N[C@@H](CO)C(N)=O [BMAP-18X6X10, GRFKRXRKKXKKLFKKIS] (H-GRFKR[Phg]RKK[Phg]KKLFKKIS-NH2)
CC50 at 6 days ([1]; CEM-SS cells): 10.2 µM
EC50 (HIV-1IIIB; Table 5, BMAP-27-derived peptides, CEM-SS cells): 0.68 µM

CC[C@@H](C)[C@@H](NC(=O)[C@H](CCCNC(=N)N)NC(=O)[C@H](CCC(N)=O)NC(=O)[C@@H](NC(=O)[C@@H](NC(=O)[C@H](CCCNC(=N)N)NC(=O)[C@H](CCCCN)NC(=O)[C@H](Cc1ccccc1)NC(=O)CN)[C@@H](C)CC)C(C)C)C(=O)N[C@@H](CCCCN)C(=O)N[C@@H](CC(=O)O)C(=O)N[C@@H](Cc1ccccc1)C(=O)N[C@@H](CC(C)C)C(=O)N[C@@H](CCCNC(=N)N)C(=O)N[C@@H](CC(N)=O)C(=O)N[C@@H](CC(C)C)C(=O)N[C@H](C(N)=O)C(C)C [GF-17d1]
CC50 at 6 days ([1]; CEM-SS cells): 22.7 µM
EC50 (HIV-1IIIB; [2]): > 47.5 µM

CC[C@@H](C)[C@@H](NC(=O)[C@H](CCCNC(=N)N)NC(=O)[C@H](CCC(N)=O)NC(=O)[C@@H](NC(=O)[C@@H](NC(=O)[C@H](CCCNC(=N)N)NC(=O)[C@H](CCCCN)NC(=O)[C@H](Cc1ccccc1)NC(=O)CN)[C@@H](C)CC)C(C)C)C(=O)N[C@@H](CCCCN)C(=O)N[C@@H](CC(=O)O)C(=O)N[C@@H](Cc1ccccc1)C(=O)N[C@H](CC(C)C)C(=O)N[C@@H](CCCNC(=N)N)C(=O)N[C@@H](CC(N)=O)C(=O)N[C@@H](CC(C)C)C(=O)N[C@H](C(N)=O)C(C)C [GF-17d2]
CC50 at 6 days ([1]; CEM-SS cells): > 47.5 µM
EC50 (HIV-1IIIB; [2]): > 47.5 µM

CC[C@H](C)[C@H](NC(=O)CN)C(=O)N[C@@H](CCCCN)C(=O)N[C@@H](CCC(=O)O)C(=O)N[C@H](C(=O)N[C@@H](CCCCN)C(=O)N[C@@H](CCCNC(=N)N)C(=O)N[C@H](C(=O)N[C@H](C(=O)N[C@@H](CCC(N)=O)C(=O)N[C@@H](CCCNC(=N)N)C(=O)N[C@H](C(=O)N[C@@H](CCCCN)C(=O)N[C@@H](CC(=O)O)C(=O)N[C@@H](Cc1ccccc1)C(=O)N[C@@H](CC(C)C)C(=O)N[C@@H](CCCNC(=N)N)C(=O)N[C@@H](CC(N)=O)C(=O)N[C@@H](CC(C)C)C(=O)N[C@H](C(N)=O)C(C)C)[C@@H](C)CC)C(C)C)[C@@H](C)CC)c1ccccc1 [GI-20X17, GIKEXKRIVQRIKDFLRNLV] (H-GIKE[Phg]KRIVQRIKDFLRNLV-NH2)
CC50 at 6 days ([1]; CEM-SS cells): 7.3 µM
EC50 (HIV-1IIIB; [2]): > 40.6 µM

FFGKVLKLIRKIF-NH2 [Peptide D76]
CC50 at 6 days [1]: 6.78 µM
EC50 (HIV-1IIIB; [3]): 0.63 µM

FFHHIFRGIVHVGKTIHRLVTG [Piscidin 1, reference compound]
CC50 (CEM-SS cells; [4]): 6.9 µM

FKRIVQRIKDFLR-NH2 [FK-13]
CC50 at 6 days [1]: 10.4 µM
EC50 (HIV-1IIIB; >100 μg/ml defined as HIV inactive): 5.9 µg/mL
EC50 (HIV-1IIIB; [2]): 3.4 µM

FLFPLITSFLSKVL [Ranatuerin 9, reference compound]
CC50 [1]: 34.6 µM
EC50 (HIV-1IIIB; 1IIIB): 16.7 µM

FRPALIVRTKGTRL [Hyposin-5, reference compound]
CC50 [1]: > 61.4 µM
EC50 (HIV-1IIIB; 1IIIB): > 61.4 µM

GAWKNFWSSLRKGFYDGEAGRAIRR [Peptide D94, reference compound]
CC50 (CEM-SS cells; [4]): > 34.1 µM
EC50 (HIV-1IIIB; [3]): > 34.1 µM

GFGKAFHSVSNFAKKHKTA-NH2 [Styelin A, reference compound] [listing 1 of 2 here]
EC50 (HIV-1IIIB; [3]): > 48.5 µM

GFGKAFHSVSNFAKKHKTA-NH2 [Styelin A, reference compound] [listing 2 of 2 here]
CC50 (CEM-SS cells; [4]): > 48.5 µM

GFLDIIEKIAKSW [Peptide B7]
CC50 (CEM-SS cells; [5]): > 65.8 µM
EC50 (HIV-1IIIB; [6]): 10.5 µM

GFLSILKKVLPKVMAHMK-NH2 [Melectin, reference compound]
CC50 (CEM-SS cells; [4]): 7.75 µM

GFNEIVQDIEDFLQNLV-NH2 [GF17-]
CC50 [1]: > 25.1 µM
EC50 (HIV-1IIIB; 1IIIB): > 25.1 µM

GIFDKLAKEISIW [Peptide B5]
CC50 (CEM-SS cells; [5]): > 65.8 µM
EC50 (HIV-1IIIB; [6]): > 65.8 µM

GIIDIAKKLFESW [Peptide B3]
CC50 (CEM-SS cells): > 65.8 µM
EC50 (HIV-1IIIB; 1IIIB): 20.1 µM

GIKEFKREFQRIKDFLRNLV-NH2 [GI-20EF]
CC50 at 6 days [1]: 9.9 µM
EC50 (HIV-1IIIB; [2]): 1.6 µM

GIKEFKRIVQRIKDFLRNLV-NH2 [GI-20]
CC50 at 6 days [1]: 22.7 µM
EC50 (HIV-1IIIB; [2]): 1.08 µM

GIKEWKRIVQRIKDFLRNLV-NH2 [GI-20W17]
CC50 at 6 days [1]: 23.6 µM
EC50 (HIV-1IIIB; [2]): 7.4 µM

GIKQFKRIVQRIKDFLRNLV-NH2 [GI-20Q16]
CC50 at 6 days [1]: 13.7 µM
EC50 (HIV-1IIIB; [2]): 0.91 µM

GIWDTIKSMGKVFAGKILQNL-NH2 [Brevinin-2-related, reference compound]
CC50 (CEM-SS cells): 7.42 µM

GIWSDLAEIIKKF [Peptide B6]
CC50 (CEM-SS cells; [5]): > 65.8 µM

GKPRPYSPRPTSHPRPIRV [Drosocin, reference compound]
CC50 (CEM-SS cells; [4]): > 45.5 µM
EC50 (HIV-1IIIB; [3]): > 45.5 µM

GLFDIIKKIAESW [Peptide B1]
CC50 (CEM-SS cells; [5]): 37 µM
EC50 (HIV-1IIIB; [6]): 11.7 µM

GLNTLKKVFQGLHEAIKLINNHVQ [Psuedin 1, reference compound] [listing 1 of 2 here]
EC50 (HIV-1IIIB; [3]): 35.7 µM

GLNTLKKVFQGLHEAIKLINNHVQ [Psuedin 1, reference compound] [listing 2 of 2 here]
CC50 (CEM-SS cells; [4]): > 36.8 µM

GLRRLLGRLLRRLGRLLLR [GLR-19]
CC50 (CEM-SS cells; [7]): 25.7 µM
EC50 (HIV-1IIIB; Table 3, CEM-SS cells): 4.4 µM

GLRSKIWLWVLLMIWQESNKFKKM [DRS S9, reference compound]
CC50 (CEM-SS cells; [7]): > 32.9 µM
EC50 (HIV-1IIIB; Table 3, CEM-SS cells): 31.6 µM

GLRSRIWLWVLLMIWQESNRFKRM [DRS S9r3]
CC50 (CEM-SS cells; [7]): > 32.1 µM
EC50 (HIV-1IIIB; Table 3, CEM-SS cells): 1.25 µM

GLWEKIDKFASII [Peptide B2]
CC50 (CEM-SS cells; [5]): > 65.8 µM
EC50 (HIV-1IIIB; [6]): > 65.8 µM
